Our source for the IC50 and melting point values is patent US20100173910A1, “TRIAMINOPYRIMIDINE CYCLOBUTENEDIONE DERIVATIVES USED AS PHOSPHATASE CDC25 INHIBITORS” (IPDRN PHSTMS D.S.S., priority 2007, published 2010).

Series [1] deals with T1, purified recombinant CDC25C enzyme (MBP-CDC25C protein) (Homo sapiens, UniProt P30307).
T1 construct: made in house
T1 sequence (P30307 1-473): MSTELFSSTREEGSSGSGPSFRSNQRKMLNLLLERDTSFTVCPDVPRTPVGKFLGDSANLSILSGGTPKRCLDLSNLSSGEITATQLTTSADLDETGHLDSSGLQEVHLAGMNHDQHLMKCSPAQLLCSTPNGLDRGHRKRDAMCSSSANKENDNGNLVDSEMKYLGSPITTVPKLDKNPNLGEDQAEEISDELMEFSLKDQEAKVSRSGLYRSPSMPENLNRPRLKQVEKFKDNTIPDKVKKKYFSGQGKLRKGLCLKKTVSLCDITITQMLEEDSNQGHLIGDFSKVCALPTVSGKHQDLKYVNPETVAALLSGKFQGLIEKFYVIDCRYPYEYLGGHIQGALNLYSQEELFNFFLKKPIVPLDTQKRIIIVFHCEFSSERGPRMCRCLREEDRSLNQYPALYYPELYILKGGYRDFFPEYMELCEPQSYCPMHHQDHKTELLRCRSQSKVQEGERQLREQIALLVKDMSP
Kind of series: Phosphatase activity of the purified recombinant CDC25C enzyme (OMFP dephosphorylation, fluorescence). The series is classed as biochemical. Particulars: OMFP 500 μM, 4 hours at 30° C., three independent experiments; nested upper bounds; read-out: IC50 for the phosphatase activity of the purified recombinant CDC25-C enzyme. Here is the method:
i) Determination of the Phosphatase Activity of the Purified Recombinant CDC25C Enzyme:
The phosphatase activity of the MBP-CDC25C protein is evaluated through its dephosphorylation of 3-O-methylfluorescein-phosphate (OMFP) to form 3-O-methylfluorescein (OMF), determining the fluorescence of the reaction product at 475 nm. This assay can be used to identify inhibitors of the recombinant CDC25 enzyme. The preparation of the MBP-CDC25C fusion protein is described in the PCT patent application published under the number WO 01/44467.
The reaction is performed in 384-well plates in a final volume of 50 μl. The MBP-CDC25C protein (prepared as described hereinabove) is stored in the following elution buffer: 20 mM Tris-HCl pH 7.4; 250 mM NaCl; 1 mM EDTA; 1 mM dithiothreitol (DTT); 10 mM maltose. It is diluted to a concentration of 60 μM in the following reaction buffer: 50 mM Tris-HCl pH 8.2; 50 mM NaCl; 1 mM DTT; 20% glycerol. The background noise is determined using with the buffer without adding the enzyme. The products are tested at decreasing concentrations from 40 μM. The reaction is initiated by the addition of OMFP solution to a final concentration of 500 μM (prepared immediately before use from a 12.5 mM stock solution in 100% DMSO (Sigma #M2629)). After 4 hours at 30° C. in a disposable 384-well plate, the fluorescence measured at OD 475 nm is read on a Victor^2 plate reader (EGG-Wallac). The concentration that produces 50% inhibition of the enzyme reaction is calculated from three independent experiments. Only the values that fall within the linear part of the sigmoid curve are used for the linear regression analysis.

Series [2] relates to DU 145 (human prostate carcinoma cells). Description: Anti-proliferative activity, DU 145 cells (WST1 colorimetric test). The series is classed as cell-based. Particulars: DU-145, 96 h, 96 hours treatment, up to 10 μM, nested upper bounds, read-out: IC50 for proliferation of the DU 145 cell lines. As to the method:
(§1) ii) Characterisation of Anti-Proliferative Activity:
(§2) By way of an example, the effect of treating two human cell lines MIA PaCa-2 and DU 145 with the compounds of the examples described hereinbefore will be studied. The cell lines DU 145 (human prostate carcinoma cells) and MIA PaCa-2 (human pancreatic carcinoma cells) were obtained from the American Tissue Culture Collection (Rockville, Md., USA). A 96-well plate was inoculated on day 0 with cells in 80 μl of Dulbecco's modified Eagle's medium (Gibco-Brl, Cergy-Pontoise, France) with 10% heat-inactivated foetal calf serum (Gibco-Brl, Cergy-Pontoise, France), 50,000 units/l of penicillin and 50 mg/l of streptomycin (Gibco-Brl, Cergy-Pontoise, France) and 2 mM of glutamine (Gibco-Brl, Cergy-Pontoise, France). The cells were treated on day 1 for 96 hours with increasing concentrations of each test compound up to 10 μM. At the end of this period, cell proliferation is quantified by means of a colorimetric test based on cleavage of the tetrazolium salt WST1 by the mitochondrial dehydrogenases in the viable cells, resulting in formation of formazan (Boehringer Mannheim, Meylan, France). These tests are performed in duplicate with 8 determinations per concentration tested. For each test compound, the values within the linear part of the sigmoid curve were subjected to linear regression analysis and used to estimate the IC50 inhibitory concentration. The products are solubilised in dimethylsulfoxide (DMSO) at a concentration of 10^−2 M and used in culture with a final DMSO concentration of 0.1%.
On the technique in general: Formazan colour is commonly taken as a measure of viable cells.

The subject of series [3] is MIA PaCa-2 (human pancreatic carcinoma cells). Description: Anti-proliferative activity, MIA PaCa-2 cells (WST1 colorimetric test). It is filed as cell-based. The conditions noted are these: MIA PaCa-2, 96 h, 96 hours treatment, up to 10 μM, nested upper bounds, read-out: IC50 for proliferation of the MIA PaCa-2 cell lines. As to the method:
as §1, §2

What is called melting point is the temperature, or range, at which the solid turns liquid.

As to `N#Cc1ccc(Nc2c(NCCNc3cc(N4CCCC4)nc(N4CCCC4)n3)c(=O)c2=O)cc1` [Example 33, 3-({2-[(2,6-dipyrrolidin-1-ylpyrimidin-4-yl)amino]ethyl}amino)-4-[(4-cyanophenyl)amino]cyclobut-3-ene-1,2-dione], the melting point was above 250 °C. In addition, in series [1], the IC50 is at most 1000 nM. Also, the IC50 in series [2] is at most 10 µM. In addition, in series [3], the IC50 is at most 10 µM.
Consider `CN(Cc1ccc(Nc2c(NCCNc3cc(N4CCCC4)nc(N4CCCC4)n3)c(=O)c2=O)cc1)C(=O)OC(C)(C)C` [Example 21, tert-butyl (4-{[2-({2-[(2,6-dipyrrolidin-1-ylpyrimidin-4-yl)amino]ethyl}amino)-3,4-dioxocyclobut-1-en-1-yl]amino}benzyl)methylcarbamate], for which the results for the IC50 in series [1], in series [2] and in series [3] were at most 1000 nM, at most 10 µM and at most 10 µM, respectively.
In turn, `O=c1c(NCCNc2cc(N3CCCC3)nc(N3CCCC3)n2)c(Nc2cccc(Cl)c2)c1=O` [Example 17, 3-[(3-chlorophenyl)amino]-4-({2-[(2,6-dipyrrolidin-1-ylpyrimidin-4-yl)amino]ethyl}amino)cyclobut-3-ene-1,2-dione] displayed a melting point of 209 to 211 °C. For the same compound, the IC50 in series [1] is at most 5000 nM. Further, the IC50 in series [2] was at most 10 µM. Further, in series [3], the IC50 is at most 10 µM.
In turn, `O=c1c(NCCNc2cc(N3CCCC3)nc(N3CCCC3)n2)c(Nc2cc(F)cc(F)c2)c1=O` [Example 15, 3-[(3,5-difluorophenyl)amino]-4-({2-[(2,6-dipyrrolidin-1-ylpyrimidin-4-yl)amino]ethyl}amino)cyclobut-3-ene-1,2-dione] displayed a melting point of 192 to 194 °C. Also, in series [1], the IC50 was at most 1000 nM. Besides, the IC50 in series [2] is at most 10 µM.
`COc1cccc(Nc2c(NCCNc3cc(N4CCCC4)nc(N4CCCC4)n3)c(=O)c2=O)c1` [Example 20, 3-({2-[(2,6-dipyrrolidin-1-ylpyrimidin-4-yl)amino]ethyl}amino)-4-[(3-methoxyphenyl)amino]cyclobut-3-ene-1,2-dione] gave a melting point of 205 to 207 °C. For the same compound, in series [1], the IC50 is at most 5000 nM. Further, the IC50 in series [2] was at most 10 µM. For the same compound, in series [3], the IC50 is at most 10 µM.
For `O=c1c(NCCNc2cc(N3CCCC3)nc(N3CCCC3)n2)c(Nc2ccc(F)cc2)c1=O` [Example 31, 3-({2-[(2,6-dipyrrolidin-1-ylpyrimidin-4-yl)amino]ethyl}amino)-4-[(4-fluorophenyl)amino]cyclobut-3-ene-1,2-dione], the melting point lay in the range of 241 to 243 °C. The IC50 in series [1] was at most 1000 nM. For the same compound, in series [2], the IC50 is at most 10 µM. Besides, the IC50 in series [3] is at most 10 µM.
`O=c1c(NCCNc2cc(N3CCCC3)nc(N3CCCC3)n2)c(Nc2ccc(C3CCCCC3)cc2)c1=O` [Example 23, 3-[(4-cyclohexylphenyl)amino]-4-({2-[(2,6-dipyrrolidin-1-ylpyrimidin-4-yl)amino]ethyl}amino)cyclobut-3-ene-1,2-dione] had a melting point of 218 to 220 °C. Further, the IC50 in series [1] is at most 5000 nM. In addition, the IC50 in series [2] was at most 10 µM. In series [3], the IC50 is at most 10 µM.
The compound `O=c1c(NCCNc2cc(N3CCCC3)nc(N3CCCC3)n2)c(Nc2ccc3c(c2)OCO3)c1=O` [Example 26, 3-(1,3-benzodioxol-5-ylamino)-4-({2-[(2,6-dipyrrolidin-1-ylpyrimidin-4-yl)amino]ethyl}amino)cyclobut-3-ene-1,2-dione] gave a melting point of 180 to 190 °C. Also, the IC50 in series [1] is at most 1000 nM. In addition, the IC50 in series [2] was at most 10 µM. The IC50 in series [3] was at most 10 µM.
Consider `O=c1c(NCCNc2cc(N3CCCC3)nc(N3CCCC3)n2)c(Nc2ccc(Cl)c(F)c2)c1=O` [Example 36, 3-[(4-chloro-3-fluorophenyl)amino]-4-({2-[(2,6-dipyrrolidin-1-ylpyrimidin-4-yl)amino]ethyl}amino)cyclobut-3-ene-1,2-dione], for which the IC50 was at most 1000 nM in series [1] and at most 10 µM in series [2].
`CCCc1ccc(Nc2c(NCCNc3cc(N4CCCC4)nc(N4CCCC4)n3)c(=O)c2=O)cc1` [Example 24, 3-({2-[(2,6-dipyrrolidin-1-ylpyrimidin-4-yl)amino]ethyl}amino)-4-[(4-propylphenyl)amino]cyclobut-3-ene-1,2-dione]: the IC50 is at most 1000 nM in series [1], at most 10 µM in series [2] and at most 10 µM in series [3].
In turn, `CC(=O)c1ccc(Nc2c(NCCNc3cc(N4CCCC4)nc(N4CCCC4)n3)c(=O)c2=O)cc1` [Example 19, 3-[(4-acetylphenyl)amino]-4-({2-[(2,6-dipyrrolidin-1-ylpyrimidin-4-yl)amino]ethyl}amino)cyclobut-3-ene-1,2-dione] showed a melting point of 186 to 188 °C. The IC50 in series [1] was at most 1000 nM. Besides, the IC50 in series [2] was at most 10 µM. The IC50 in series [3] is at most 10 µM.
For the compound `CC(C)(C)OC(=O)NCCc1ccc(Nc2c(NCCNc3cc(N4CCCC4)nc(N4CCCC4)n3)c(=O)c2=O)cc1` [Example 29, tert-butyl [2-(4-{[2-({2-[(2,6-dipyrrolidin-1-ylpyrimidin-4-yl)amino]ethyl}amino)-3,4-dioxocyclobut-1-en-1-yl]amino}phenyl)ethyl]carbamate], the melting point lay in the range of 216 to 218 °C. Besides, in series [1], the IC50 is at most 1000 nM. For the same compound, in series [2], the IC50 was at most 10 µM. In addition, in series [3], the IC50 was at most 10 µM.
With `O=c1c(NCCNc2cc(N3CCCC3)nc(N3CCCC3)n2)c(Nc2ccc(-c3ccccc3)cc2)c1=O` [Example 11, 3-(biphenyl-4-ylamino)-4-({2-[(2,6-dipyrrolidin-1-ylpyrimidin-4-yl)amino]ethyl}amino)cyclobut-3-ene-1,2-dione], the IC50 in series [1] is at most 5000 nM; in series [2] it was at most 10 µM.
For `O=c1c(NCCNc2cc(N3CCCC3)nc(N3CCCC3)n2)c(Nc2ccc([N+](=O)[O-])cc2)c1=O` [Example 34, 3-({2-[(2,6-dipyrrolidin-1-ylpyrimidin-4-yl)amino]ethyl}amino)-4-[(4-nitrophenyl)amino]cyclobut-3-ene-1,2-dione], in that order: at most 1000 nM and at most 10 µM.
In the case of `O=c1c(NCCNc2cc(N3CCCC3)nc(N3CCCC3)n2)c(Nc2ccc(C(F)(F)F)cc2)c1=O` [Example 32, 3-({2-[(2,6-dipyrrolidin-1-ylpyrimidin-4-yl)amino]ethyl}amino)-4-{[4-(trifluoromethyl)phenyl]amino}cyclobut-3-ene-1,2-dione], the melting point was above 250 °C. Besides, the IC50 in series [1] is at most 1000 nM. The IC50 in series [2] was at most 10 µM.
